Data on 50 compounds can be found in PubChem BioAssay AID743341 (Broad Institute, 2014).

Structures are written as SMILES. Inconclusive results are not listed. Calls of active or inactive are those of the source.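 The calls were made as follows: active = fitted curve of myotube length rescue reaches 40% at or below the top valid tested dose in every replicate test; inconclusive = replicate tests give mixed outcomes; inactive = every replicate test inactive, including effects in the opposite direction.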

The subject of the first experiment is C2C12 myotubes + simvastatin, MHC imaging tube length, 48 h. In words: rescue of myotube length under simvastatin, confirmation, orthogonal assay for statin myotoxicity suppressor project, imaging, C2C12 myotubes, MHC immunostaining, dry powder (AID 743341).
Conditions: not given
For the compound `C[C@H]1CN([C@@H](C)CO)C(=O)Cc2cc(NC(=O)CCCCCC(=O)Nc3ccccc3N)ccc2O[C@H]1CN(C)Cc1ccc(Oc2ccccc2)cc1`, the AC40 is 3.07 µM.
As to `C[C@H](CO)N1C[C@H](C)[C@H](CN(C)Cc2ccc(C(=O)Nc3ccccc3N)cc2)Oc2ccc(NC(=O)Nc3cccc4ccccc34)cc2C1=O`, the AC40 was 5.9 µM.
In the case of `C[C@H](CO)N1C[C@H](C)[C@H](CN(C)Cc2ccc(C(=O)Nc3ccccc3N)cc2)Oc2ccc(NC(=O)Nc3ccc(F)cc3)cc2CC1=O`, the AC40 was 0.655 µM.
On the same count and under the same terms, the same measure for `C[C@H]1CN([C@@H](C)CO)C(=O)c2cc(C#Cc3ccncc3)cnc2O[C@@H]1CN(C)CC1CCCC1`: 8.86 µM; for `C[C@H]1CN([C@@H](C)CO)S(=O)(=O)c2ccc(C#Cc3ccc(F)cc3)cc2O[C@@H]1CN(C)S(=O)(=O)c1cn(C)cn1`: 13 µM; for `C[C@@H]1CN([C@H](C)CO)C(=O)c2cccc(NC(=O)Nc3ccc4c(c3)OCO4)c2O[C@H]1CN(C)Cc1ccc(C(=O)Nc2ccccc2N)cc1`: 0.76 µM.
Take `C[C@H](CO)N1C[C@H](C)[C@@H](CN(C)Cc2ccc(C(=O)Nc3ccccc3N)cc2)Oc2ccc(NC(=O)Cc3cn(C)c4ccccc34)cc2C1=O`: the AC40 is 10.2 µM.
In the case of `C[C@@H]1CN([C@H](C)CO)C(=O)Cc2cc(NC(=O)C3CCCCC3)ccc2O[C@H]1CN(C)Cc1ccc(Cl)c(Cl)c1`, the AC40 was 7.84 µM.
Turning to `C[C@H]1CN([C@@H](C)CO)C(=O)Cc2cc(NC(=O)CCCCCC(=O)Nc3ccccc3N)ccc2O[C@H]1CN(C)CC1CCCCC1`, the AC40 is 8.03 µM.
Consider `C[C@@H]1CN([C@H](C)CO)C(=O)c2cc(NC(=O)Nc3cccc4ccccc34)ccc2O[C@@H]1CN(C)Cc1ccc(C(=O)Nc2ccccc2N)cc1`, for which the AC40 is 6.47 µM.
`CC(C)=CCC/C(C)=C/CC/C(C)=C/CC/C(C)=C/CO`: the AC40 was 4.25 µM.
Same read-out and setting: the same measure for `C[C@@H]1CN([C@H](C)CO)C(=O)c2cccc(NC(=O)c3nc4ccccc4s3)c2O[C@@H]1CN(C)Cc1ccc(C(=O)Nc2ccccc2N)cc1`: 1.79 µM; for `C[C@H]1CN([C@@H](C)CO)C(=O)c2cc(N(C)C)ccc2O[C@@H]1CN(C)Cc1ccc(C(=O)Nc2ccccc2N)cc1`: 1.55 µM; for `C[C@H]1CN([C@@H](C)CO)C(=O)Cc2cc(NC(=O)CCCCCC(=O)Nc3ccccc3N)ccc2O[C@H]1CN(C)Cc1ccc(C(F)(F)F)cc1`: 10.3 µM.
As for `C[C@H](CO)N1C[C@H](C)[C@H](CN(C)CC2CCCCC2)Oc2ccc(NC(=O)CCCCCC(=O)Nc3ccccc3N)cc2CC1=O`, the AC40 was 13.2 µM.
The same measure, in the same setting: the same measure for `C[C@@H]1CN([C@@H](C)CO)C(=O)c2cc(NC(=O)Cc3cn(C)c4ccccc34)ccc2O[C@H]1CN(C)Cc1ccc(C(=O)Nc2ccccc2N)cc1`: 10.9 µM; for `C[C@@H]1CN([C@@H](C)CO)C(=O)c2cccc(NC(=O)Nc3ccc4c(c3)OCO4)c2O[C@H]1CN(C)Cc1ccc(C(=O)Nc2ccccc2N)cc1`: 7.66 µM.
Consider `C[C@@H]1CN([C@@H](C)CO)C(=O)c2cc(NC(=O)Cc3cn(C)c4ccccc34)ccc2O[C@@H]1CN(C)Cc1ccc(C(=O)Nc2ccccc2N)cc1`, for which the AC40 is 10.5 µM.
The same measure, in the same setting: the same measure for `N#C[C@@H]1[C@@H](c2ccc(-c3ccc(F)cc3)cc2)[C@H](CO)N1C(=O)Cc1ccccc1`: 15 µM; for `C[C@H]1CN([C@@H](C)CO)S(=O)(=O)c2ccc(C#CC3CC3)cc2O[C@H]1CN(C)C(=O)Nc1cc(F)ccc1F`: 19.5 µM; for `C[C@H]1CN([C@@H](C)CO)C(=O)Cc2cc(NC(=O)Nc3cccc4ccccc34)ccc2O[C@H]1CN(C)Cc1ccc(C(=O)Nc2ccccc2N)cc1`: 4.57 µM.
For `C[C@H](CO)N1C[C@H](C)[C@H](CN(C)Cc2ccc(C(=O)Nc3ccccc3N)cc2)Oc2ccc(N(C)C)cc2C1=O`, the AC40 was 0.581 µM.

Tested on in the next experiment: not listed separately
The description is as above. As to conditions: C2C12 myotubes + simvastatin, MHC imaging tube length, 48 h; at 18 µM (top of the series).
For the compound `C[C@H](CO)N1C[C@H](C)[C@H](CN(C)Cc2ccc3c(c2)OCO3)Oc2ccc(NC(=O)CCCCCC(=O)Nc3ccccc3N)cc2CC1=O`, the rescue of myotube length is 19.7% (inactive).
On to `C[C@H]1CN([C@@H](C)CO)C(=O)Cc2cc(NC(=O)CCCCCC(=O)Nc3ccccc3N)ccc2O[C@H]1CN(C)Cc1ccccc1`, for which the rescue of myotube length is 21.7% (inactive).

Staying with this experiment, now noted: C2C12 myotubes + simvastatin, MHC imaging tube length, 48 h; at 19.5 µM (top of the series).
With `COc1ccc(CN(C)C[C@H]2Oc3ccc(NS(=O)(=O)c4ccc(Cl)cc4)cc3CC(=O)N([C@@H](C)CO)C[C@@H]2C)cc1`, the rescue of myotube length was -19% (inactive).
For `O=C(C[C@H]1CC[C@@H]2[C@H](COC[C@H](O)CN2CCC(F)(F)F)O1)NCc1ccc(Oc2ccccc2)cc1`, the rescue of myotube length is 5.97% (inactive).
Regarding `C[C@@H]1CN([C@H](C)CO)C(=O)Cc2cc(NS(=O)(=O)c3ccc(Cl)cc3)ccc2O[C@H]1CN(C)Cc1ccccc1`, the rescue of myotube length is 0.917% (inactive).
In the case of `N#C[C@@H]1[C@@H](c2ccccc2-c2cccc(F)c2)[C@H](CO)N1C(=O)NC1CCCC1`, the rescue of myotube length is 10.7% (inactive).
Regarding `N#C[C@H]1[C@H](c2ccc(C#CCC3CCCC3)cc2)[C@@H](CO)N1C(=O)CN1CCOCC1`, the rescue of myotube length is 14.6% (inactive).
Still for that read-out and setting: the same measure for `COc1ccc(C#Cc2cnc3c(c2)C(=O)N([C@H](C)CO)C[C@H](C)[C@H](CN(C)Cc2ccccc2)O3)cc1OC`: -10.4% (inactive); for `COc1ccc(C#Cc2cnc3c(c2)C(=O)N([C@H](C)CO)C[C@H](C)[C@@H](CN(C)C(=O)Nc2cccc(OC)c2)O3)cc1`: 30.4% (inactive); for `COc1ccc(S(=O)(=O)Nc2ccc3c(c2)CC(=O)N([C@H](C)CO)C[C@H](C)[C@@H](CN(C)Cc2ccc(Cl)c(Cl)c2)O3)cc1`: -14.2% (inactive).
For `COc1ccc(S(=O)(=O)N(C)C[C@H]2Oc3c(NC(=O)Nc4ccccc4)cccc3C(=O)N([C@H](C)CO)C[C@H]2C)cc1`, the rescue of myotube length is 3.68% (inactive).
`N#C[C@@H]1[C@H](c2ccc(-c3cccc(F)c3)cc2)[C@@H](CO)N1C(=O)NC1CCCC1`: the rescue of myotube length was 12.9% (inactive).
The same measure, in the same setting: the same measure for `COc1ccc(S(=O)(=O)Nc2cccc3c2O[C@H](CN(C)C(=O)Nc2ccc(F)cc2)[C@H](C)CN([C@@H](C)CO)C3=O)cc1`: -2.59% (inactive); for `Cc1ccc(S(=O)(=O)Nc2ccc3c(c2)CC(=O)N([C@@H](C)CO)C[C@@H](C)[C@H](CN(C)Cc2ccc(-c4ccccc4)cc2)O3)cc1`: -2.54% (inactive); for `N#C[C@@H]1[C@@H](c2ccc(C3=CCCCC3)cc2)[C@H](CO)N1C(=O)NC1CCCC1`: 9.82% (inactive).
In the case of `C[C@H](CO)N1C[C@H](C)[C@@H](CN(C)Cc2ccc(Oc3ccccc3)cc2)Oc2c(NC(=O)Nc3cccc4ccccc34)cccc2C1=O`, the rescue of myotube length was 14.7% (inactive).
Consider `O=C(C[C@H]1CC[C@@H]2[C@H](COC[C@@H](O)CN2Cc2ccc(Oc3ccccc3)cc2)O1)N1CCCCC1`, for which the rescue of myotube length was 15.6% (inactive).
As for `C[C@H]1CN([C@@H](C)CO)C(=O)c2cc(NC(=O)Nc3cccc4ccccc34)ccc2O[C@H]1CN(C)Cc1ccc(C(=O)Nc2ccccc2N)cc1`, the rescue of myotube length was 13.4% (inactive).
In the case of `COc1ccc(-c2ccc([C@@H]3[C@@H](C#N)N(C(=O)NC4CCCC4)[C@H]3CO)cc2)cc1`, the rescue of myotube length is 7.03% (inactive).
As for `CCCC#Cc1ccc([C@H]2[C@@H](C#N)N(S(=O)(=O)c3cccc(F)c3)[C@H]2CO)cc1`, the rescue of myotube length is 4.16% (inactive).
The same measure, in the same setting: the same measure for `C[C@H](CO)N1C[C@H](C)[C@@H](CN(C)Cc2ccc(Cl)c(Cl)c2)Oc2ccc(NC(=O)C3CC3)cc2CC1=O`: -6.48% (inactive).
On the same count and under the same terms, the same measure for `N#C[C@@H]1[C@@H](c2ccc(-c3cccc(F)c3)cc2)[C@H](CO)N1C(=O)c1cccnc1`: 12.6% (inactive); for `N#C[C@H]1[C@H](c2ccc(-c3cccc(F)c3)cc2)[C@H](CO)N1C(=O)NC1CCCC1`: 14.9% (inactive).

Staying with this experiment, now noted: C2C12 myotubes + simvastatin, MHC imaging tube length, 48 h; at 21 µM (top of the series).
As for `COCC(=O)N1[C@H](C#N)[C@@H](c2ccc(-c3cccc(F)c3)cc2)[C@@H]1CO`, the rescue of myotube length was 4.32% (inactive).
For the compound `CCS(=O)(=O)N1[C@H](C#N)[C@@H](c2ccc(-c3cccc(F)c3)cc2)[C@@H]1CO`, the rescue of myotube length is 16.6% (inactive).
Still for that read-out and setting: the same measure for `N#C[C@H]1N[C@@H](CO)[C@@H]1c1ccc(-c2cccc(F)c2)cc1`: 8.43% (inactive).
On to `C[C@@H]1CN([C@@H](C)CO)C(=O)Cc2cc(NC(=O)CCCCCC(=O)Nc3ccccc3N)ccc2O[C@@H]1CN(C)Cc1ccc(Oc2ccccc2)cc1`, for which the rescue of myotube length was -5.63% (inactive).
With `CCCNC(=O)N1[C@@H](C#N)[C@@H](c2ccc(-c3ccccc3F)cc2)[C@@H]1CO`, the rescue of myotube length was -2.07% (inactive).
